ChEMBL document CHEMBL1149580, “Caco-2 cell permeability and stability of two d-glucopyranuronamide conjugates of thyrotropin-releasing hormone” (Bioorg Med Chem, 2007)
Non-standard residues stand in square brackets, D forms with d. Residues, ends and D or L forms follow the SMILES beside them. ξ: configuration not given here. *: point of attachment. X1 = NC(=O)[C@H]1OC(N*)[C@H](O)[C@@H](O)[C@@H]1O; ξAoc(2) = CCCCCCC(N)C(=O)O

Legend:
[1] = Stability in Caco-2 cells assessed as half life; assay type: ADME, cell-based, Colon; settings: human
[2] = Apparent permeability across human Caco-2 cells; assay type: ADME, cell-based
[3] = Stability in Caco-2 cells after 2 hrs; assay type: ADME, cell-based; settings: human, read-out: Stability
[4] = Stability in Caco-2 cells after 20 mins; assay type: ADME, cell-based; settings: human, read-out: Stability

| Compound | half-life [1] | Papp [2] | remaining at 2 h [3] | remaining at 20 min [4] |
| --- | --- | --- | --- | --- |
| CCCCCCC(N)C(=O)N[C@@H](CCC(N)=O)C(=O)N[C@@H](Cc1cnc[nH]1)C(=O)N1CCC[C@H]1C(=O)NC1O[C@H](C(N)=O)[C@@H](O)[C@H](O)[C@H]1O (stereo not given in full) (H-[ξAoc(2)]QHP-X1) | 20 min | 16.3 ×10⁻⁶ cm/s | 20% |  |
| NC(=O)[C@H]1OC(NC(=O)[C@@H]2CCCN2C(=O)[C@H](Cc2cnc[nH]2)NC(=O)[C@@H]2CCC(=O)N2)[C@H](O)[C@@H](O)[C@@H]1O (stereo not given in full) | 20 min | 5.1 ×10⁻⁶ cm/s | 20% |  |
| OC[C@@H](O)[C@@H](O)[C@H](O)[C@H](O)CO [MANNITOL] |  | 0.0825 ×10⁻⁶ cm/s |  |  |
| NC(=O)[C@@H]1CCCN1C(=O)[C@H](Cc1cnc[nH]1)NC(=O)[C@@H]1CCC(=O)N1 [PROTIRELIN] | 3 min | 0.147 ×10⁻⁶ cm/s |  | < 5% |
